From US10869483B2, “Coniothyrium minitans for use against moss growth” (Bayer CropScience Aktiengesellschaft, priority 2015, dated 2020)

Tested on: haircup moss growth
Assay: Drench test (greenhouse, moss growth on soil surface)
Type: in vivo
Conditions: 6.25 kg/ha = 20 μL/mL, 20 mL drench onto soil, 19 weeks, 15° C., 0% = untreated control, 100% = no moss growth
Protocol: The test was carried out under greenhouse conditions.
120 mL of a mixture of steamed field soil and sand (1:1) was filled into transparent cylindrical vessels 5.5 cm in size.
The test formulation, the product CONTANS®, comprising 1×10^9 spores of the strain Coniothyrium minitans CON/M/91-08, was dissolved in water and diluted with water to the desired concentrations. 20 mL of the made-up solutions were pipetted onto the soil in the vessels.
The vessels were covered with a transparent lid.
The vessels remained in the greenhouse for the next 19 weeks, at 15° C. and at natural light conditions. The lids were opened slightly after approximately 2 weeks, and the soil was watered every 3 weeks and kept moist.
The evaluation was effected by estimating, per vessel, the soil surface area which had in the meantime been covered by growth, predominantly haircup moss growth. 0% means an efficacy which corresponds to that of the untreated control, while an efficacy of 100% means that no moss growth was discernible.

`CCCCCCCCCC[N+](C)(C)CCCCCCCCCC.[Cl-]` [DDAC-C10, Didecyldimethylammonium chloride with alkyl chain length C10] gave an Efficacy % of 100%.
